Results reported in patent US20240018145A1, “[…]-DEPENDENT EN[…] TREATING OR […]” (priority 2020, published 2024).

These compounds were tested on FLU A (PR/8/34) (assay: Flu A Neuraminidase Antiviral Assay). Conditions: not given.
Format: cell-based

Row | Compound | EC50
1 | CN1C(=O)c2c(O)c(=O)ccn2N2C(c3ccccc3)C(CCC3CC3)CCC12 (single isomer, unassigned) [Compound 115A, 2-(2-cyclopropylethyl)-7-hydroxy-5-methyl-1-phenyl-1,2,3,4,4a,5-hexahydrodipyrido[1,2-b:2′,1′-f][1,2,4]triazine-6,8-dione] | > 8100 nM
2 | CN1C(=O)c2c(O)c(=O)ccn2N2C1CCCC21CCCc2ccccc21 (single isomer, unassigned) [Compound 32A, 7-hydroxy-5-methyl-3,3′,4,4a,4′,5-hexahydro-2H,2′H-spiro[dipyrido[1,2-b:2′,1′-f][1,2,4]triazine-1,1′-naphthalene]-6,8-dione] | > 8100 nM
3 | CN1C(=O)c2c(O)c(=O)ccn2N2C(c3c(F)cccc3F)C(CC(F)(F)F)CCC12 (single isomer, unassigned) [Compound 123A, 1-(2,6-difluorophenyl)-7-hydroxy-5-methyl-2-(2,2,2-trifluoroethyl)-1,2,3,4,4a,5-hexahydrodipyrido[1,2-b:2′,1′-f][1,2,4] triazine-6,8-dione] | > 8100 nM
4 | CCN1C(=O)c2c(O)c(=O)ccn2N2C(c3ccccc3C)C(CC(F)(F)F)CCC12 (single isomer, unassigned) [Compound 93A, 5-ethyl-7-hydroxy-1-(o-tolyl)-2-(2,2,2-trifluoroethyl)-1,2,3,4,4a,5-hexahydrodipyrido[1,2-b:2′,1′-f][1,2,4]triazine-6,8-dione] | 475 nM
5 | CN1C(=O)c2c(O)c(=O)ccn2N2C1CCCC2(C)c1ccccn1 (single isomer, unassigned) [Compound 30A, 7-hydroxy-1,5-dimethyl-1-(pyridin-2-yl)-1,2,3,4,4a,5-hexahydrodipyrido[1,2-b:2′,1′-f][1,2,4]triazine-6,8-dione] | 16.6 nM
6 | CC1CCC2N(C)C(=O)c3c(O)c(=O)ccn3N2C1(C)c1ccccc1 (single isomer, unassigned) [Compound 29A, 7-hydroxy-1,2,5-trimethyl-1-phenyl-1,2,3,4,4a,5-hexahydrodipyrido[1,2-b:2′,1′-f][1,2,4]triazine-6,8-dione] | 1860 nM
7 | CN1C(=O)c2c(O)c(=O)ccn2N2C(c3ccccc3Cl)C(CC(F)(F)F)CCC12 (single isomer, unassigned) [Compound 119B, 1-(2-chlorophenyl)-7-hydroxy-5-methyl-2-(2,2,2-trifluoroethyl)-1,2,3,4,4a,5-hexahydrodipyrido[1,2-b:2′,1′-f][1,2,4]triazine-6,8-dione] | 2.7 nM
8 | CN1C(=O)c2c(O)c(=O)ccn2N2C1CCC1(CC(F)(F)C1)C2c1ccccc1 (single isomer, unassigned) [Compound 74B, 3,3-difluoro-7′-hydroxy-5′-methyl-1′-phenyl-3′,4′,4a′,5′-tetrahydro-1′H-spiro[cyclobutane-1,2′-dipyrido[1,2-b:2′,1′-f][1,2,4]triazine]-6′,8′-dione] | 15.7 nM
9 | CN1C(=O)c2c(O)c(=O)ccn2N2C(c3ccccc3)CCCCC12 (single isomer, unassigned) [Compound 57B, 4-hydroxy-6-methyl-11-phenyl-6a,7,8,9,10,11-hexahydro-3H-pyrido[1′,2′:1,6][1,2,4]triazino[2,3-a]azepine-3,5(6H)-dione] | > 8100 nM
10 | CCOC1CCC2N(C)C(=O)c3c(O)c(=O)ccn3N2C1c1ccccc1 (centres unmarked) [Compound 152A, 2-ethoxy-7-hydroxy-5-methyl-1-phenyl-1,2,3,4,4a,5-hexahydrodipyrido[1,2-b:2′,1′-f][1,2,4]triazine-6,8-dione] | 4300 nM
11 | CN1C(=O)c2c(O)c(=O)ccn2N2C(c3cccc(Br)c3)C(CC(F)(F)F)CCC12 (single isomer, unassigned) [Compound 83A, 1-(3-bromophenyl)-7-hydroxy-5-methyl-2-(2,2,2-trifluoroethyl)-1,2,3,4,4a,5-hexahydrodipyrido[1,2-b:2′,1′-f][1,2,4]triazine-6,8-dione] | 152 nM
12 | CCN1C(=O)c2c(O)c(=O)ccn2N2C(c3ccccc3)C(C3(C(F)(F)F)CC3)CCC12 (single isomer, unassigned) [Compound 104A, 5-ethyl-7-hydroxy-1-phenyl-2-(1-(trifluoromethyl)cyclopropyl)-1,2,3,4,4a,5-hexahydrodipyrido[1,2-b:2′,1′-f][1,2,4]triazine-6,8-dione] | 8 nM
13 | CCCC1CCC2N(CC)C(=O)c3c(O)c(=O)ccn3N2C1c1ccccc1F (single isomer, unassigned) [Compound 96B, 5-ethyl-1-(2-fluorophenyl)-7-hydroxy-2-propyl-1,2,3,4,4a,5-hexahydrodipyrido[1,2-b:2′,1′-f][1,2,4]triazine-6,8-dione] | 2.2 nM
14 | CN1C(=O)c2c(O)c(=O)ccn2N2C1CCCC21CCCc2ccccc21 (single isomer, unassigned) [Compound 32B, 7-hydroxy-5-methyl-3,3′,4,4a,4′,5-hexahydro-2H,2′H-spiro[dipyrido[1,2-b:2′,1′-f][1,2,4]triazine-1,1′-naphthalene]-6,8-dione] | 156 nM
15 | CN1C(=O)c2c(O)c(=O)ccn2N2C1CCC1(CCCC(F)(F)C1)C2c1ccccc1 (single isomer, unassigned) [Compound 75A, 3,3-difluoro-7′-hydroxy-5′-methyl-1′-phenyl-3′,4′,4a′,5′-tetrahydro-1′H-spiro[cyclohexane-1,2′-dipyrido[1,2-b:2′,1′-f][1,2,4]triazine]-6′,8′-dione] | > 810 nM
16 | CN1C(=O)c2c(O)c(=O)ccn2N2C1CCC(C)(C)C2(C)c1ccccc1 (single isomer, unassigned) [Compound 35B, 7-hydroxy-1,2,2,5-tetramethyl-1-phenyl-1,2,3,4,4a,5-hexahydrodipyrido[1,2-b:2′,1′-f][1,2,4]triazine-6,8-dione] | > 8100 nM
17 | CCN1C(=O)c2c(O)c(=O)cc(COC)n2N2C(c3ccccc3)C(CC(F)(F)F)CCC12 (centres unmarked) [Compound 131E, 5-ethyl-7-hydroxy-10-(methoxymethyl)-1-phenyl-2-(2,2,2-trifluoroethyl)-1,2,3,4,4a,5-hexahydrodipyrido[1,2-b:2′,1′-f][1,2,4]triazine-6,8-dione] | 6.8 nM
18 | Cc1ccccc1C1C(CCC(F)F)CCC2N(C)C(=O)c3c(O)c(=O)ccn3N12 (single isomer, unassigned) [Compound 103A, 2-(3,3-difluoropropyl)-7-hydroxy-5-methyl-1-(o-tolyl)-1,2,3,4,4a,5-hexahydrodipyrido[1,2-b:2′,1′-f][1,2,4]triazine-6,8-dione] | > 810 nM
19 | Cc1cccc(F)c1C1C(CC(F)(F)F)CCC2N(C)C(=O)c3c(O)c(=O)ccn3N12 (single isomer, unassigned) [Compound 77A, 1-(2-fluoro-6-methylphenyl)-7-hydroxy-5-methyl-2-(2,2,2-trifluoroethyl)-1,2,3,4,4a,5-hexahydrodipyrido[1,2-b:2′,1′-f][1,2,4]triazine-6,8-dione] | 3.3 nM
20 | CN1C(=O)c2c(O)c(=O)ccn2N2C1CCCC2(C)c1ccncc1 (single isomer, unassigned) [Compound 31B, 7-hydroxy-1,5-dimethyl-1-(pyridin-4-yl)-1,2,3,4,4a,5-hexahydrodipyrido[1,2-b:2′,1′-f][1,2,4]triazine-6,8-dione] | > 8100 nM
21 | CN1C(=O)c2c(O)c(=O)ccn2N2C1CCCC21CCc2ccccc21 (single isomer, unassigned) [Compound 21B, 7-hydroxy-5-methyl-2′,3,3′,4,4a,5-hexahydro-2H-spiro[dipyrido[1,2-b:2′,1′-f][1,2,4]triazine-1,1′-indene]-6,8-dione] | 2.6 nM
22 | Cc1cccc(F)c1C1C(CC(F)(F)F)CCC2N(C)C(=O)c3c(O)c(=O)ccn3N12 (single isomer, unassigned) [Compound 77B, 1-(2-fluoro-6-methylphenyl)-7-hydroxy-5-methyl-2-(2,2,2-trifluoroethyl)-1,2,3,4,4a,5-hexahydrodipyrido[1,2-b:2′,1′-f][1,2,4]triazine-6,8-dione] | 3.2 nM
23 | CN1C(=O)c2c(O)c(=O)ccn2N2C(c3ccccc3)C3CCC(C3)C12 (single isomer, unassigned) [Compound 9D, 4-hydroxy-6-methyl-11-phenyl-6a,7,8,9,10,11-hexahydro-3H-7,10-methanopyrido[1′,2′:1,6][1,2,4]triazino[2,3-a]azepine-3,5(6H)-dione] | > 8100 nM
24 | CN1C(=O)c2c(O)c(=O)ccn2N2C(c3cccc(F)c3)C(CC(F)(F)F)CCC12 (single isomer, unassigned) [Compound 121B, 1-(3-fluorophenyl)-7-hydroxy-5-methyl-2-(2,2,2-trifluoroethyl)-1,2,3,4,4a,5-hexahydrodipyrido[1,2-b:2′,1′-f][1,2,4]triazine-6,8-dione] | 5.8 nM
25 | CN1C(=O)c2c(O)c(=O)ccn2N2C1CCC1(CCCC(F)(F)C1)C2c1ccccc1 (single isomer, unassigned) [Compound 75C, 3,3-difluoro-7′-hydroxy-5′-methyl-1′-phenyl-3′,4′,4a′,5′-tetrahydro-1′H-spiro[cyclohexane-1,2′-dipyrido[1,2-b:2′,1′-f][1,2,4]triazine]-6′,8′-dione] | 140 nM

Same assay, conditions: MDCK, 48 h

Row | Compound | EC50
26 | CN1C(=O)c2c(O)c(=O)ccn2N2[C@H](c3ccccc3)[C@H](OCc3ccc(F)c(F)c3)CC[C@@H]12 [Compound 157, (1R,2R,4aS)-2-((3,4-difluorobenzyl)oxy)-7-hydroxy-5-methyl-1-phenyl-1,2,3,4,4a,5-hexahydrodipyrido[1,2-b:2′,1′-f][1,2,4]triazine-6,8-dione] | 336 nM
27 | CN1C(=O)c2c(O)c(=O)ccn2N2C(c3cccc(OC(F)F)c3)CCCC12 (single isomer, unassigned) [Compound 12A, 1-(3-(difluoromethoxy)phenyl)-7-hydroxy-5-methyl-1,2,3,4,4a,5-hexahydrodipyrido[1,2-b:2′,1′-f][1,2,4]triazine-6,8-dione] | > 8100 nM
28 | CN1C(=O)c2c(O)c(=O)ccn2N2C(c3cccc4ccccc34)CCCC12 (single isomer, unassigned) [Compound 5A, 7-hydroxy-5-methyl-1-(naphthalen-1-yl)-1,2,3,4,4a,5-hexahydrodipyrido[1,2-b:2′,1′-f][1,2,4]triazine-6,8-dione] | 1530 nM
29 | CC(C)CCO[C@@H]1CC[C@H]2N(C)C(=O)c3c(O)c(=O)ccn3N2[C@@H]1c1ccccc1 [Compound 161, (1R,2R,4aS)-7-hydroxy-2-(isopentyloxy)-5-methyl-1-phenyl-1,2,3,4,4a,5-hexahydrodipyrido[1,2-b:2′,1′-f][1,2,4]triazine-6,8-dione] | 120 nM
